According to US9254251B2, “Benzoic acid amide compound” (AMOREPACIFIC CORPORATION, priority 2011, dated 2016):

Tests used:
mushroom tyrosinase = test: Effect of inhibiting mushroom tyrosinase activity (method of Vanni, et al.); type: biochemical; settings: read-out: IC50 (concentration required to inhibit tyrosinase activity to 50%); mushroom tyrosinase 10 units, tyrosine substrate, 37° C. for 10 minutes, pH 6.8, absorbance at 480 nm
Procedure: The effect of inhibiting mushroom tyrosinase activity of the benzamide derivative compounds of Examples was measured according to the method of Vanni, et al. Specifically, 49.5 μL of 0.1 M potassium phosphate buffer (pH 6.8), 45 μL of distilled water (DW), 0.5 μL (10 units) of mushroom tyrosinase (SIGMAT-7755) and 5 μL of the benzamide derivative compound of Examples were mixed and reacted at 37° C. for 10 minutes by mixing with 50 μL of 0.3 mg/mL tyrosine aqueous solution in a 96-well plate (total volume: 150 μL).

B16F10 melanoma cells = test: Effect of reducing melanin production in melanocytes (Dooley's method); type: cell-based; settings: B16-F10, 120 h; Mouse-derived B16F10 melanoma cells; melanin extracted after 5 days, absorbance at 405 nm; read-out: IC50 (concentration required to reduce melanin production in melanocytes to half)
Procedure: The effect of reducing melanin production of the benzamide derivative compounds prepared in Examples in melanocytes was measured according to the Dooley's method. Mouse-derived B16F10 melanoma cells acquired from the Korean Cell Line Bank were used. DMEM (Cat No. 11995), FBS (Cat No. 16000-044), and antibiotic and antifungal agents (Cat No. 15240-062) necessary for cell culturing were purchased from Invitrogen (GIBCO). The cells were cultured under the condition of 37° C. and 5% CO2. The cultured B16F10 cells were detached using 0.05% trypsin-EDTA and seeded onto a 48-well plate with the same cell number (1×10^4 cells/well). From the next day, the culture medium was replaced with one containing 10 ppm of the compound of Examples for three consecutive days. Kojic acid and rucinol were used as positive control. After 5 days, melanin was extracted from the cells by treating with 1 N NaOH at 60° C. for 2 hours, which was quantitated by measuring absorbance at 405 nm.

SMILES	IC50 (mushroom tyrosinase) [nM]	IC50 (B16F10 melanoma cells) [nM]
O=C(NCc1ccc(O)cc1O)c1ccc(O)c(C23CC4CC(CC(C4)C2)C3)c1 [Example 17, 3-adamantan-1-yl-N-(2,4-dihydroxybenzyl)-4-hydroxybenzamide]	900	–
O=c1cc(CO)occ1O [Kojic acid, reference compound]	–	300000
CCCCc1ccc(O)cc1O [Rucinol, reference compound]	1300	10000
O=C(NCc1cc(O)ccc1O)c1cc(C23CC4CC(CC(C4)C2)C3)c(O)cc1O [Example 20, 5-adamantan-1-yl-N-(2,5-dihydroxybenzyl)-2,4-dihydroxybenzamide]	–	2900
O=C(NCCc1ccc(O)cc1)c1cc(C23CC4CC(CC(C4)C2)C3)c(O)cc1O [Example 5, 5-adamantan-1-yl-2,4-dihydroxy-N-[2-(4-hydroxyphenyl)-ethyl]benzamide]	–	1100
COc1cc(O)c(C(=O)NCc2ccc(O)cc2O)cc1C12CC3CC(CC(C3)C1)C2 [Example 9, 5-adamantan-1-yl-N-(2,4-dihydroxybenzyl)-2-hydroxy-4-methoxybenzamide]	800	1800
O=C(NCc1ccc(O)cc1O)c1cc(C23CC4CC(CC(C4)C2)C3)c(O)cc1O [Example 8, 5-adamantan-1-yl-N-(2,4-dihydroxybenzyl)-2,4-dihydroxybenzamide]	1100	1200
COc1cc(OC)c(C23CC4CC(CC(C4)C2)C3)cc1C(=O)NCc1ccc(O)cc1O [Example 10, 5-adamantan-1-yl-N-(2,4-dihydroxybenzyl)-2,4-dimethoxybenzamide]	900	1100

The next lines start with the values.

IC50 (mushroom tyrosinase) [nM]	IC50 (B16F10 melanoma cells) [nM]	SMILES
–	2000	COc1cc(CNC(=O)c2cc(C34CC5CC(CC(C5)C3)C4)c(O)cc2O)cc(OC)c1 [Example 21, 5-adamantan-1-yl-N-(3,5-dimethoxybenzyl)-2,4-dihydroxybenzamide]
1400	–	COc1ccc(C(=O)NCc2ccc(O)cc2O)cc1C12CC3CC(CC(C3)C1)C2 [Example 18, 3-adamantan-1-yl-N-(2,4-dihydroxybenzyl)-4-methoxybenzamide]
–	1200	O=C(NCCc1ccc(O)c(O)c1)c1cc(C23CC4CC(CC(C4)C2)C3)c(O)cc1O [Example 1, 5-adamantan-1-yl-N-[2-(3,4-dihydroxyphenyl)-ethyl]-2,4-dihydroxybenzamide]
–	1900	COc1ccc(C(=O)NCc2ccc(O)c(O)c2)cc1C12CC3CC(CC(C3)C1)C2 [Example 12, 3-adamantan-1-yl-N-(3,4-dihydroxybenzyl)-4-methoxybenzamide]
–	3000	O=C(NCCc1ccc(O)c(O)c1)c1ccc(O)c(C23CC4CC(CC(C4)C2)C3)c1 [Example 13, 3-adamantan-1-yl-N-[2-(3,4-dihydroxyphenyl)-ethyl]-4-hydroxybenzamide]
